From ChEMBL document CHEMBL1201862, “PubChem BioAssay data set” (2004) come the findings set out here.

Common to all, as to test: inhibition of tumour cell growth, NCI panel, 48 h
Assay [1] has as its system 786-0.
The test system of assay [2] is A549.
In assay [3] the test system is DU-145.
Assay [4] deals with EKVX.
The test system of assay [5] is HOP-62.
For assay [6], the system named is HT-29.
Assay [7] deals with Hs-578T.
The subject of assay [8] is M14.
Assay [9] deals with OVCAR-8.
The subject of assay [10] is PC-3.
The subject of assay [11] is SF-268.
Assay [12] relates to SF-539.
The test system of assay [13] is SK-MEL-5.
The subject of assay [14] is SK-OV-3.
Assay [15] relates to SNB-19.
For assay [16], the system named is SNB-75.
Assay [17] has as its system UACC-62.
The subject of assay [18] is UO-31.
The subject of assay [19] is OVCAR-3.

SMILES strings stand for the structures.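 Assay format: 96-well plates, 48-hour exposure. GI50 is the concentration that inhibits growth by half.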 Active and inactive are the calls of the source. Cut-off read from the data, not from the text of the source: active = GI50 up to about 1.1 µM and inactive = higher.

On to `NS(=O)(=O)c1ccc2c(c1)OCCOCCOCCOCCO2`, for which the GI50 in [1], in assay [2], in assay [3], in assay [4], in [5] and in assay [6] was > 100 µM (inactive) in each case. Moreover, the GI50 in assay [7], in assay [8], in [9], in [10], in assay [11] and in assay [12] was > 100 µM (inactive) in each case. Also, the GI50 in assay [13], in assay [14], in [15], in assay [16], in [17] and in assay [18] was > 100 µM (inactive) each time.

For the compound `CC1=CC(=O)N(n2c(-c3ccccc3)n[nH]c2=O)C1=O`, the GI50 in assay [1], in [2], in [3], in [4], in [5] and in assay [6] was > 100 µM (inactive) in each case. In addition, the GI50 in assay [7], in assay [8], in assay [19], in assay [9], in assay [10] and in assay [11] was > 100 µM (inactive) throughout. The GI50 in [12], in assay [13], in [14], in assay [15], in assay [16] and in assay [17] was > 100 µM (inactive) each time. For the same compound, the GI50 in assay [18] was > 100 µM (inactive).

With `O=C1CCCC/C1=C(\Br)I`, the GI50 in assay [1] was 19.6 µM (inactive); in assay [2], 23.3 µM (inactive); in [3], 16 µM (inactive); in [4], 18.7 µM (inactive); in assay [5], 19.2 µM (inactive); in assay [6] it was 12.9 µM (inactive). In addition, the GI50 in assay [7] is 35.4 µM (inactive); in assay [8] it was 6.78 µM (inactive); in [19] it was 18 µM (inactive); in assay [9] it was 14.5 µM (inactive); in assay [10] it was 17.3 µM (inactive); in [11], 9.62 µM (inactive). The GI50 in assay [12] is 18.8 µM (inactive); in [13], 17.9 µM (inactive); in assay [14], 22 µM (inactive); in assay [15] it was 20.7 µM (inactive); in assay [16] it was 16.9 µM (inactive); in assay [17], 15.5 µM (inactive). For the same compound, in assay [18], the GI50 was 17.7 µM (inactive).

For `CCOc1ccccc1NC(=O)C(=O)Cc1nc2ccccc2s1`, the GI50 in [1], in assay [2], in assay [4], in assay [5], in [6] and in assay [8] was > 100 µM (inactive) in each case. Besides, the GI50 in assay [19], in [9], in assay [11], in [12], in assay [13] and in assay [14] was > 100 µM (inactive) throughout. Moreover, the GI50 in assay [15] was > 100 µM (inactive); in assay [16], 77.1 µM (inactive); in assay [17] it was > 100 µM (inactive); in [18], > 100 µM (inactive).

On to `COC(=O)C(CCS(=O)(=O)CC(=O)C(=O)Nc1cccc(C(C)=O)c1)C(=O)OC`, for which the GI50 in [1], in assay [2], in assay [4], in assay [5], in [6] and in assay [8] was > 100 µM (inactive) each time. Besides, the GI50 in [19] is > 100 µM (inactive); in assay [9] it was > 100 µM (inactive); in [11] it was 0.586 µM (active); in [12] it was > 100 µM (inactive); in assay [13], > 100 µM (inactive); in assay [14] it was > 100 µM (inactive). Also, the GI50 in [15], in assay [16], in [17] and in [18] was > 100 µM (inactive) each time.

With `O=C(CC1(O)C(=O)Nc2ccc(Br)cc21)c1ccc(Cl)cc1` (stereo not drawn), the GI50 was 75.7 µM (inactive) in assay [1]; > 100 µM (inactive) in [2]; > 100 µM (inactive) in assay [4]; 68.9 µM (inactive) in assay [5]; 42 µM (inactive) in assay [6]; 83.2 µM (inactive) in [8]. Further, the GI50 was > 100 µM (inactive) in assay [19]; 52 µM (inactive) in assay [9]; > 100 µM (inactive) in assay [11]; 50.7 µM (inactive) in assay [12]; > 100 µM (inactive) in assay [13]; > 100 µM (inactive) in assay [14]. For the same compound, the GI50 in [15] is 84.9 µM (inactive); in assay [16], 16.3 µM (inactive); in assay [17], 36.2 µM (inactive); in assay [18], > 100 µM (inactive).

`Cc1cccc(C)c1NC(=O)/C(=N/NC(N)=S)C(C)C(=O)c1ccc(Cl)cc1` (stereo not drawn): the GI50 in assay [1] is > 100 µM (inactive); in [2], > 100 µM (inactive); in assay [4] it was > 100 µM (inactive); in [5], > 100 µM (inactive); in assay [6], 75.9 µM (inactive); in assay [8] it was > 100 µM (inactive). The GI50 in assay [19], in assay [9], in assay [11], in [12], in [13] and in [14] was > 100 µM (inactive) throughout. For the same compound, the GI50 in assay [15], in assay [16], in [17] and in assay [18] was > 100 µM (inactive) throughout.

For `CCOC(=O)c1nc2c(Cl)c3ncccc3cc2[nH]c1=O`, the GI50 in assay [1] is 35.6 µM (inactive); in assay [2], 28.4 µM (inactive); in [3], > 100 µM (inactive); in assay [4], 9.08 µM (inactive); in assay [5], 25.6 µM (inactive); in assay [6], 38 µM (inactive). Moreover, the GI50 in assay [7] was 31.7 µM (inactive); in assay [8] it was 27.9 µM (inactive); in assay [19], 26.2 µM (inactive); in assay [9], 29.9 µM (inactive); in assay [10], 30.9 µM (inactive); in [11] it was 44.6 µM (inactive). In addition, the GI50 is 34.8 µM (inactive) in assay [12]; 9.04 µM (inactive) in [13]; > 100 µM (inactive) in assay [14]; 48.1 µM (inactive) in assay [15]; 17.2 µM (inactive) in [16]; 14.6 µM (inactive) in assay [17]. Also, the GI50 in assay [18] was 55.5 µM (inactive).

Turning to `CC(=O)OC1CC2C(C)(C)C(=O)C=C[C@]2(C)C2CCC3(C)C(c4ccoc4)[C@@H](O)[C@H]4O[C@]43[C@]12C` (stereo partly drawn), the GI50 in [1] was 17.5 µM (inactive); in assay [2], 36 µM (inactive); in assay [4], 30.2 µM (inactive); in assay [5], 22.7 µM (inactive); in [6], 21.7 µM (inactive); in assay [8], 19.9 µM (inactive). The GI50 in assay [19] was 17.7 µM (inactive); in [9], 18.3 µM (inactive); in [11] it was 24.5 µM (inactive); in assay [12] it was 17.9 µM (inactive); in assay [13], 17.5 µM (inactive); in [14], 20.7 µM (inactive). Besides, the GI50 is 24 µM (inactive) in assay [15], 24 µM (inactive) in [16], 16.2 µM (inactive) in assay [17] and 17.8 µM (inactive) in [18].

For `CCOC(=O)C1(C/C=C(/C)Cl)CCCC1=O` (stereo not drawn), the GI50 in assay [1], in [2], in assay [4], in assay [5], in assay [6] and in assay [8] was > 100 µM (inactive) in each case. For the same compound, the GI50 in assay [19], in assay [9], in assay [11], in assay [12], in assay [13] and in assay [14] was > 100 µM (inactive) each time. The GI50 in assay [15], in [16], in assay [17] and in [18] was > 100 µM (inactive) throughout.

For `COc1cc2c(cc1OC)C1C=NC(C(=O)O)(C2)c2ccccc21` (stereo not drawn), the GI50 in assay [1], in [2], in assay [4], in [5], in assay [6] and in assay [8] was > 100 µM (inactive) each time. Moreover, the GI50 in [19], in assay [9], in [11], in assay [12], in assay [13] and in [14] was > 100 µM (inactive) throughout. The GI50 in assay [15] is > 100 µM (inactive); in [16], > 100 µM (inactive); in assay [17], > 100 µM (inactive); in assay [18] it was > 10 µM (inactive).

For the compound `NC1=NN(c2ccccc2)C(=O)C1/C(=N\NC(=O)c1cc2ccccc2cc1O)C(=O)Nc1nc([N+](=O)[O-])cs1` (stereo not drawn), the GI50 was 31.5 µM (inactive) in assay [1]; 32.7 µM (inactive) in [2]; 47.3 µM (inactive) in [4]; 54 µM (inactive) in assay [5]; 32.7 µM (inactive) in assay [6]; 35.7 µM (inactive) in [8]. The GI50 is 30.1 µM (inactive) in [19]; 19.5 µM (inactive) in [9]; 16.7 µM (inactive) in assay [11]; 23.9 µM (inactive) in [12]; 20.3 µM (inactive) in assay [13]; 55.7 µM (inactive) in assay [14]. Besides, the GI50 in assay [15] was > 60.1 µM (inactive); in assay [16], 18.5 µM (inactive); in assay [17] it was 19.6 µM (inactive); in [18] it was 9.42 µM (inactive).
